In PubChem BioAssay AID2060893 (Molecular Pharmacology Branch, DTP, NCI, 2025):
pIC50: −log10 of the molar value. Each block holds one compound with its values, some of them ahead of it.

System: K86415-001-R-J1-PDC complex spheroids, viability
Experiment: Anticancer human tumor K86415-001-R-J1-PDC patient-derived lung adenocarcinoma cell line growth inhibition [RAS]
Settings: for pIC50: curve of first compound; for viability, T/C: stronger effect = lower value
In short: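 Agents were tested in combination matrices in half-log decrements from a top concentration at or near clinical Cmax (10 microM if undetermined). Targets were multi-cell spheroids of tumour lines plus HUVEC and MSC stromal cells.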

[1] = second compound 0.0316 µM, first compound 0.00316 µM
[2] = second compound 0.0316 µM, first compound 0.01 µM
[3] = second compound 0.0316 µM, first compound 0.0316 µM
[4] = second compound 0.0316 µM, first compound 0.1 µM
[5] = second compound 0.0316 µM, first compound 0.316 µM
[6] = second compound 0.0316 µM, first compound 1 µM
[7] = second compound 0.1 µM, first compound 0.00316 µM
[8] = second compound 0.1 µM, first compound 0.01 µM
[9] = second compound 0.1 µM, first compound 0.0316 µM
[10] = second compound 0.1 µM, first compound 0.1 µM
[11] = second compound 0.1 µM, first compound 0.316 µM
[12] = second compound 0.1 µM, first compound 1 µM
[13] = second compound 0.316 µM, first compound 0.00316 µM
[14] = second compound 0.316 µM, first compound 0.01 µM
[15] = second compound 0.316 µM, first compound 0.0316 µM
[16] = second compound 0.316 µM, first compound 0.1 µM
[17] = second compound 0.316 µM, first compound 0.316 µM
[18] = second compound 0.316 µM, first compound 1 µM
[19] = second compound 1 µM, first compound 0.00316 µM
[20] = second compound 1 µM, first compound 0.01 µM
[21] = second compound 1 µM, first compound 0.0316 µM
[22] = second compound 1 µM, first compound 0.1 µM
[23] = second compound 1 µM, first compound 0.316 µM
[24] = second compound 1 µM, first compound 1 µM
[25] = second compound 3.16 µM, first compound 0.00316 µM
[26] = second compound 3.16 µM, first compound 0.01 µM
[27] = second compound 3.16 µM, first compound 0.0316 µM
[28] = second compound 3.16 µM, first compound 0.1 µM
[29] = second compound 3.16 µM, first compound 0.316 µM
[30] = second compound 3.16 µM, first compound 1 µM
[31] = second compound 10 µM, first compound 0.00316 µM
[32] = second compound 10 µM, first compound 0.01 µM
[33] = second compound 10 µM, first compound 0.0316 µM
[34] = second compound 10 µM, first compound 0.1 µM
[35] = second compound 10 µM, first compound 0.316 µM
[36] = second compound 10 µM, first compound 1 µM
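Further: spheroids exposed to agents for seven days before readout.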

pIC50 (second compound 0.0316 µM): < 6.00
pIC50 (second compound 0.1 µM): < 6.00
pIC50 (second compound 0.316 µM): < 6.00
pIC50 (second compound 1 µM): 7.57
pIC50 (second compound 3.16 µM): > 8.50
pIC50 (second compound 10 µM): > 8.50
SMILES: CCN1CCN(Cc2ccc(Nc3ncc(F)c(-c4cc(F)c5nc(C)n(C(C)C)c5c4)n3)nc2)CC1 + C#Cc1c(F)ccc2cc(O)cc(-c3ncc4c(N5CC6CCC(C5)N6)nc(OCC56CCCN5CC(F)C6)nc4c3F)c12
viability, T/C [1]: 93.1%
viability, T/C [2]: 89%
viability, T/C [3]: 77.4%
viability, T/C [4]: 67.5%
viability, T/C [5]: 66.3%
viability, T/C [6]: 67.4%
viability, T/C [7]: 90.9%
viability, T/C [8]: 80.5%
viability, T/C [9]: 72.3%
viability, T/C [10]: 61.7%
viability, T/C [11]: 57.4%
viability, T/C [12]: 70.7%
viability, T/C [13]: 92%
viability, T/C [14]: 79.3%
viability, T/C [15]: 67.1%
viability, T/C [16]: 55.8%
viability, T/C [17]: 50.3%
viability, T/C [18]: 61%
viability, T/C [19]: 62%
viability, T/C [20]: 54.7%
viability, T/C [21]: 49%
viability, T/C [22]: 44.5%
viability, T/C [23]: 45.2%
viability, T/C [24]: 53.5%
viability, T/C [25]: 39.5%
viability, T/C [26]: 34.9%
viability, T/C [27]: 28.4%
viability, T/C [28]: 26.1%
viability, T/C [29]: 30.9%
viability, T/C [30]: 38.9%
viability, T/C [31]: 14.3%
viability, T/C [32]: 15.6%
viability, T/C [33]: 14.1%
viability, T/C [34]: 19%
viability, T/C [35]: 22.1%
viability, T/C [36]: 22.2%

pIC50 (second compound 0.0316 µM): 6.31
pIC50 (second compound 0.1 µM): 6.54
pIC50 (second compound 0.316 µM): 6.72
pIC50 (second compound 1 µM): 7.37
pIC50 (second compound 3.16 µM): > 8.50
pIC50 (second compound 10 µM): > 8.50
SMILES: C=CC(=O)Nc1cc(Nc2nccc(-c3cn(C)c4ccccc34)n2)c(OC)cc1N(C)CCN(C)C + C#Cc1c(F)ccc2cc(O)cc(-c3ncc4c(N5CC6CCC(C5)N6)nc(OCC56CCCN5CC(F)C6)nc4c3F)c12
viability, T/C [1]: 95.1%
viability, T/C [2]: 99.4%
viability, T/C [3]: 88.3%
viability, T/C [4]: 73.1%
viability, T/C [5]: 58.4%
viability, T/C [6]: 38.9%
viability, T/C [7]: 84.5%
viability, T/C [8]: 99.3%
viability, T/C [9]: 88.1%
viability, T/C [10]: 67.7%
viability, T/C [11]: 50.8%
viability, T/C [12]: 31.2%
viability, T/C [13]: 87.8%
viability, T/C [14]: 92.3%
viability, T/C [15]: 72.3%
viability, T/C [16]: 56.1%
viability, T/C [17]: 46.1%
viability, T/C [18]: 21.8%
viability, T/C [19]: 61.1%
viability, T/C [20]: 59.2%
viability, T/C [21]: 52.9%
viability, T/C [22]: 40.8%
viability, T/C [23]: 24.2%
viability, T/C [24]: 14.4%
viability, T/C [25]: 32.3%
viability, T/C [26]: 33.8%
viability, T/C [27]: 27.2%
viability, T/C [28]: 20.4%
viability, T/C [29]: 13.6%
viability, T/C [30]: 9.53%
viability, T/C [31]: 30.3%
viability, T/C [32]: 16.9%
viability, T/C [33]: 13.9%
viability, T/C [34]: 10.1%
viability, T/C [35]: 10.4%
viability, T/C [36]: 7%
